Test [1] relates to guinea pig trachea. The test is described as follows: Guinea Pig Assay (Test B): functional assay in guinea pig trachea, antagonism of agonist NKA or [b-ala^8]-NKA(4-10). Type of test: cell-based. The conditions noted are these: Cavia porcellus, read-out: pKB in Test B (converted). From the text:
Guinea Pig Assay (Test B)

Test [2] concerns the target T1, human NK2 receptor expressed in Mouse Erythroleukemia (MEL) cells (Homo sapiens, UniProt P21452).
T1 construct: expressed in transfected cells; host or cells: Mouse Erythroleukemia (MEL) cells
T1 sequence (P21452 1-398): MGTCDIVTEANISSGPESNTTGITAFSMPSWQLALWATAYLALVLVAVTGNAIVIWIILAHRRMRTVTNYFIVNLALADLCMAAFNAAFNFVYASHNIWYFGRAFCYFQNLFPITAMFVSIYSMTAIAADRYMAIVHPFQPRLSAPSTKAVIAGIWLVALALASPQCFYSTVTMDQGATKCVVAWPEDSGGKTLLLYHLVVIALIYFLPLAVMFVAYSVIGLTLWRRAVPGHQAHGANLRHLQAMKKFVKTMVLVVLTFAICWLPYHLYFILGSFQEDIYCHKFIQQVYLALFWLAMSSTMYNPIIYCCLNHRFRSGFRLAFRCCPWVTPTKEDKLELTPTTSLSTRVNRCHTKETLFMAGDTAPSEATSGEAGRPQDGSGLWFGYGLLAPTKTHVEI
The test is described as follows: Neurokinin A (NKA) Receptor-binding Assay (Test A). From the text: Neurokinin A (NKA) Receptor-binding Assay (Test A)

Structures can show the parent of a compound that is named as a salt.

This note sets out measurements from patent US6355695B1, “Substituted heterocycles” (Zeneca Limited, priority 1995, dated 2002).

Regarding `O=C1NCCCN1C1CCN(CCC(Cn2cnnc2-c2ccccc2)c2ccc(Cl)c(Cl)c2)CC1` (centres unmarked) [Example 3, 1-[1-[3-(3,4-Dichlorophenyl)-4-(2-phenyl-1,3,4-triazol-1-yl)butyl]piperidin-4-yl]tetrahydropyrimidin-2-one hydrochloride], the Kb in test [1] was 2 nM.

For orientation: Ki means a dissociation constant, usually derived from enzyme kinetics or from competition with a known ligand. A lower Ki goes with tighter binding. As for `OC1(c2ccccc2)CCN(CCC(Cn2ccnc2-c2ccccc2)c2ccc(Cl)c(Cl)c2)CC1` (centres unmarked) [Example 2, 1-[3-(3,4-Dichlorophenyl)-4-(2-phenylimidazol-1-yl)butyl]-4-hydroxy-4-phenylpiperidine dihydrochloride], the Ki in test [2] stood at 23 nM.
